Experimental findings from patent publication US20060025419A1, “Imidazoquinoxaline compound for the treatment of melanoma” (priority 2004, published 2006) are described below.

Molecules are shown by their SMILES.

For one data set, the system named is NF-κB. Description: NF-κB-dependent luciferase reporter assay. The format is cell-based, human. As to conditions: 36 h. As to the method:
(§1) FIGS. 2A-2D. […] SK-Mel-5 cells were plated in 6-well plates (1.5×10^5 cells per well) and then cotransfected with 1 μg of HIV long terminal repeat NF-κB-luciferase vector and β-galactosidase vector DNA using Lipofectamine Plus reagent. Twenty-four hours after transfection, cells in duplicate plates were treated with 0, 0.1, 1 and 10 μM of BMS-345541in DMSO and incubated for an additional 36 h. Cell extract was prepared and luciferase activity was detected. Luciferase activity was normalized to β-galactosidase activity. […] ATP. The [γ-^32P]-labeled IκBα protein was visualized by autoradiography. […] The supernatants from B were cleared by centrifugation, or (FIG. 2D) sera were collected from mice, and subjected to ELISA assay for CXCL1 according to the manufacture's protocol. Data shown are from a representative data set from two experiments performed in duplicate (total n=4 for each point). For ELISA; the mean value is representative of serum samples from five mice.
In general terms: Reporter assays use an easily measured gene product as a stand-in for the process of interest.

In data set [1] the test system is Normal human epidermal melanocytes (NHEM). Nature of the data set: Growth of cultured cells, hemocytometer counting. Type of data set: cell-based. From the text: A super-repressor form of human IκBα (S32, 36A) resistant to degradation and mutant IKKβ […]) was kindly provided by Javier […] Cancer Center, University of California-San Diego School of Medicine). Antibodies to IKKα (H-744), IKKβ (H-470), Bcl-2, Bax and AIF were purchased from Santa Cruz Biotechnology, Inc. (Santa Cruz, Calif.). […] N-acetyl-L-cysteine (NAC) and Tiron were from Sigma-Aldrich (St. Louis, Mo.). Normal human epidermal melanocytes (NHEM) were provided by the Skin Disease Research Center in Vanderbilt University School of Medicine. NHEM were cultured in 154 medium with 1× human melanocyte growth supplement (Cascade Biologicals, Inc.). The melanoma cell lines, Sk Mel5, A375 and Hs294T, originally established from human metastatic melanoma, were purchased from American Type Culture Collection and cultured in DMEM: Ham's F-12 medium containing 10% FBS, 2 mM of L-glutamine, 100 μM of MEM Non-Essential Amino Acids (Life Technologies, Inc.), and 1 mM of sodium pyruvate (Sigma Chemical Co.). Aberrant activation of NF-κB has been associated with carcinogenesis, and constitutively high IKK activity has been detected in many tumor types, including human melanoma (Yang & Richmond, 2001; […] et al., 2003; […] et al., 2003). IKK is a major regulator of the NF-κB pathway and therefore represents an attractive therapeutic target in advanced cancers. […] After three days of culture, the cell numbers were determined by hemocytometer counting (Table 1).

Data set [2] can be described thus: BMS-345541 levels in mouse serum and tumor tissues after oral dose. The format is in vivo, mice. As to the method: FIGS. 1A-1E. […] After 72 h treatment, cells were photographed. […] 2×10^6 SK-Mel-5 melanoma cells were subcutaneously inoculated into nude mice (n=5 mice per group). […] Tumor size was measured using an electronic digital caliper at intervals of 4 days. Tumor volume was calculated and statistically analyzed. Data shown are representative of two independent experiments. […] BMS-345541 levels in serum (μM, left axis) and tumor tissues (nmoles per gram tumor protein, right axes) were determined at the indicated time points.
Tumor tissue levels of drug were 3.2±0.97, 12.5±3.28 and 28.1±2.65 nmoles per gram tissue protein for the three treatment groups, respectively.

The subject of the next data set is CXCL1. Description: CXCL1 ELISA of melanoma cell culture medium. The format is cell-based, human. As to conditions: SK-Mel-5 supernatant, 14 h. As to the method: as §1
To quantify the CXCL1 expression levels in vivo and in vitro, serum was collected at the end of the experiments from mice bearing SK-Mel-5 melanoma tumors or from the cleared supernatants of melanoma cell culture medium. Briefly, 1.5×10^5 of SK-Mel-5 cells/well were seeded in six-well plates in duplicate in DMEM/F12 medium containing 10% FBS.
In general terms: An ELISA detects its analyte on a solid surface through an enzyme-linked reagent.

For the compound `Cc1ccc2nc(NCCN)c3ncc(C)n3c2c1.Cl` [BMS-345541, 4(2′-aminoethyl)amino-1,8-dimethylimidazo(1,2-a)quinoxaline], the “reduction in NF-κB-dependent luciferase activity” value in the data set on NF-κB (SK-Mel-5, 0.1 μM) was 36%; in the data set with NF-κB (SK-Mel-5, 1.0 μM), 75%; in the data set on NF-κB (SK-Mel-5, 10 μM), 95%. For the same compound, the “cell number after three days of culture” value was 4.8 ± 0.28 in data set [1] (0.1 μM), 4.9 ± 0.38 in data set [1] (1.0 μM) and 0.18 ± 0.04 in data set [1] (10 μM). Further, the “concentration in tumor tissues” value in data set [2] (75 mg/kg oral, 1.5 h (FIG. 1E)) turned out to be 19±2.5 nmoles/g tissue protein; in data set [2] (75 mg/kg oral, 3 h (FIG. 1E)), 44±1.5 nmoles/g tissue protein; in data set [2] (75 mg/kg oral, 5 h (FIG. 1E)) it was 30±1.0 nmoles/g tissue protein; in data set [2] (75 mg/kg oral, 8 h (FIG. 1E)) it was 29±2.5 nmoles/g tissue protein; in data set [2] (75 mg/kg oral, 24 h (FIG. 1E)), 11±0.83 nmoles/g tissue protein. The tumor tissue level is given as 3.2±0.97 nmoles per gram tissue protein in data set [2] (8 h after oral dose of 10 mg/kg), 12.5±3.28 nmoles per gram tissue protein in data set [2] (8 h after oral dose of 25 mg/kg) and 28.1±2.65 nmoles per gram tissue protein in data set [2] (8 h after oral dose of 75 mg/kg (dose series)). In data set [2] (nude, mouse, serum, 75 mg/kg oral, 1.5 h (FIG. 1E)), this compound returned a concentration at 1.5 h of 6.6 ± 0.31 µM. In data set [2] (nude, mouse, serum, 75 mg/kg oral, 3 h (FIG. 1E)), the concentration at 3 h is 18 ± 1.3 µM. The compound also had a concentration at 5 h in data set [2] (nude, mouse, serum, 75 mg/kg oral, 5 h (FIG. 1E)) of 5.2 ± 0.19 µM. The concentration at 8 h in data set [2] (nude, mouse, serum, 75 mg/kg oral, 8 h (FIG. 1E)) amounted to 4.1 ± 0.22 µM; in data set [2] (nude, mouse, serum, 8 h after oral dose of 10 mg/kg) it was 0.9 ± 0.25 µM; in data set [2] (nude, mouse, serum, 8 h after oral dose of 25 mg/kg), 3.1 ± 1.1 µM; in data set [2] (nude, mouse, serum, 8 h after oral dose of 75 mg/kg (dose series)), 8.2 ± 1.1 µM. The compound further had a concentration at 24 h in data set [2] (nude, mouse, serum, 75 mg/kg oral, 24 h (FIG. 1E)) of 1100 ± 65 nM. The “CXCL1 expression in melanoma cell cultures” value in the data set on CXCL1 is given as “suppressed in a concentration-dependent manner”.
